Measurements: PubChem BioAssay AID330 (DTP/NCI, 2004)
Several values for one entry are separate records, joined by “and”; a condition that tells them apart may be missing. Identical values can stand only once. Toxic doses and inconclusive results are not listed. The calls were made as follows: active = survival T/C of 150% or more; inactive = T/C below 125% in these data.

Test system: P388 leukemia ip, CD2F1 mice, survival T/C
Assay: NCI In Vivo Anticancer Drug Screen. Data for tumor model P388 Leukemia (intraperitoneal) in CD2F1 (CDF1) mice
Conditions: endpoint: median survival time, higher = longer survival
Outline: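 Mice carrying the transplanted tumor received test compound or vehicle. Survival was recorded in each group, and the value is the treated-group measurement divided by that of the vehicle-treated control group.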

[1] = dose: 60.0 mg/kg/injection, schedule: Q01DX005 (ip), vehicle: saline with Tween-80
[2] = dose: 120.0 mg/kg/injection, schedule: Q01DX005 (ip), vehicle: saline with Tween-80
[3] = dose: 240.0 mg/kg/injection, schedule: Q01DX005 (ip), vehicle: saline with Tween-80
[4] = dose: 50.0 mg/kg/injection, schedule: Q01DX005 (ip), vehicle: saline with Tween-80
[5] = dose: 100.0 mg/kg/injection, schedule: Q01DX005 (ip), vehicle: saline with Tween-80
[6] = dose: 200.0 mg/kg/injection, schedule: Q01DX005 (ip), vehicle: saline with Tween-80
[7] = dose: 50.0 mg/kg/injection, schedule: Q01DX005 (ip), vehicle: Klucel (hydroxypropylcellulose) (HPC)
[8] = dose: 100.0 mg/kg/injection, schedule: Q01DX005 (ip), vehicle: Klucel (hydroxypropylcellulose) (HPC)
[9] = dose: 200.0 mg/kg/injection, schedule: Q01DX005 (ip), vehicle: Klucel (hydroxypropylcellulose) (HPC)

Measured: T/C

COc1ccc(NC(=S)NN)cc1
inactive: dose: 37.5 mg/kg/injection, schedule: Q01DX009 (ip), vehicle: saline with Tween-80 95 % of control | dose: 75.0 mg/kg/injection, schedule: Q01DX009 (ip), vehicle: saline with Tween-80 90 % of control | dose: 100.0 mg/kg/injection, schedule: Q04DX003 (ip), vehicle: saline with Tween-80 87 % of control

CC1(C)OC(=O)C(Cc2ccco2)C(=O)O1
inactive: dose: 100.0 mg/kg/injection, schedule: Q04DX002 (ip), vehicle: saline with Tween-80 97 % of control | dose: 200.0 mg/kg/injection, schedule: Q04DX002 (ip), vehicle: saline with Tween-80 106 % of control | dose: 400.0 mg/kg/injection, schedule: Q04DX002 (ip), vehicle: saline with Tween-80 101 % of control

CCCCc1c(OS(=O)(=O)c2ccc(C)cc2)c(C#N)c2[nH]c3ccccc3n2c1=O
inactive: [1] 91 % of control | [2] 96 % of control | [3] 89 % of control

CC1CCC2C(C)(C)C3CC12CC1OC13C (stereo not given)
inactive: [1] 100 % of control | [2] 91 % of control | [3] 96 % of control

Cc1oc2ccccc2c(=O)c1CN1CCN(c2ccccn2)CC1
inactive: dose: 60.0 mg/kg/injection, schedule: Q01DX005 (ip), vehicle: saline 101 % of control | dose: 120.0 mg/kg/injection, schedule: Q01DX005 (ip), vehicle: saline 101 % of control

CCN(CC)c1ncnc2c1nnn2C
inactive: [4] 101 % of control | [5] 100 % of control | [6] 107 % of control

CCCCN(CCCC)CC(O)c1cccc2cc(Cl)ccc12 (stereo not given)
inactive: [4] 104 % of control | [5] 109 % of control

O=[N+]([O-])c1cccc(N/N=C\c2c(Cl)[nH]c3ccccc23)c1
inactive: dose: 12.5 mg/kg/injection, schedule: Q01DX001 (ip), vehicle: Klucel (hydroxypropylcellulose) (HPC) 102 % of control | dose: 25.0 mg/kg/injection, schedule: Q01DX001 (ip), vehicle: Klucel (hydroxypropylcellulose) (HPC) 93 % of control | dose: 50.0 mg/kg/injection, schedule: Q01DX001 (ip), vehicle: Klucel (hydroxypropylcellulose) (HPC) 89 % of control | dose: 100.0 mg/kg/injection, schedule: Q01DX001 (ip), vehicle: Klucel (hydroxypropylcellulose) (HPC) 86 % of control

CCCCCC1(CCBr)C(=O)NC(=O)NC1=O
inactive: [7] 100 % of control | [8] 102 % of control | [9] 108 % of control

OC(c1cc(-c2ccccc2)nc2c1ccc1ccccc12)C1CCCCN1 (stereo not given)
inactive: dose: 12.5 mg/kg/injection, schedule: Q01DX005 (ip), vehicle: saline with Tween-80 101 % of control | dose: 25.0 mg/kg/injection, schedule: Q01DX005 (ip), vehicle: saline with Tween-80 97 % of control | [4] 100 % of control | [5] 100 % of control | [6] 107 % of control

CNC(=O)c1ccccc1CNC(=S)Nc1cccc(C)c1
inactive: [7] 98 % of control | [8] 98 % of control | [9] 95 % of control

OC(CCCN1CCN2CCc3[nH]c4ccccc4c3C2C1)c1ccc(F)cc1 (stereo not given)
inactive: dose: 100.0 mg/kg/injection, schedule: Q04DX002 (ip), vehicle: Klucel (hydroxypropylcellulose) (HPC) 100 % of control | dose: 200.0 mg/kg/injection, schedule: Q04DX002 (ip), vehicle: Klucel (hydroxypropylcellulose) (HPC) 95 % of control | dose: 400.0 mg/kg/injection, schedule: Q04DX002 (ip), vehicle: Klucel (hydroxypropylcellulose) (HPC) 100 % of control

Nc1c[nH]ccc1=O
inactive: dose: 100.0 mg/kg/injection, schedule: Q01DX009 (ip), vehicle: saline 102 % of control | dose: 200.0 mg/kg/injection, schedule: Q01DX009 (ip), vehicle: saline 100 % of control | dose: 400.0 mg/kg/injection, schedule: Q01DX009 (ip), vehicle: saline 99 % of control

CC1CN=C(c2ccc(NC(=O)Nc3ccc(C4=NCC(C)N4)cc3)cc2)N1 (stereo not given)
inactive: dose: 0.4 mg/kg/injection, schedule: Q01DX005 (ip), vehicle: saline with Tween-80 106 % of control | dose: 0.78 mg/kg/injection, schedule: Q01DX005 (ip), vehicle: saline with Tween-80 104 % of control | dose: 1.56 mg/kg/injection, schedule: Q01DX005 (ip), vehicle: saline with Tween-80 117 % of control and 118 % of control | dose: 3.13 mg/kg/injection, schedule: Q01DX005 (ip), vehicle: saline with Tween-80 117 % of control | dose: 6.25 mg/kg/injection, schedule: Q01DX005 (ip), vehicle: saline with Tween-80 110 % of control
